Measurements reported in patent US8252737B2, “Antimicrobial peptides and methods of use” (priority 2004, dated 2012).
Converted amounts (≈) assume the structure as drawn. Square brackets hold non-standard residues; d marks the D form. Peptide text beside a SMILES is read from it.

Key:
[1] = Circular dichroism spectroscopy of helical structure (benign buffer and 50% TFE); assay type: physicochemical
In short: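 Peptide CD spectra at 25 °C, 190–250 nm, in benign buffer (50 mM KH2PO4/K2HPO4, 100 mM KCl, pH 7) and in the same buffer with 50% TFE. Samples were a 10-fold dilution of ~500 μM stock. Mean residue molar ellipticity at 222 nm gave relative α-helicity.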

human erythrocytes = assay: Hemolytic activity (MHC), Protocol B, 18 hours; conditions: for MHC (μg/ml) hRBC: maximal peptide concentration with no hemolysis after 18 hours
In short: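 Hemolysis of 1% human erythrocytes in phosphate-buffered saline by 2-fold diluted D-peptides, incubated 18 h at 37 °C; hemoglobin release read spectrophotometrically. Value is the maximal peptide concentration producing no hemolysis, relative to erythrocytes without peptide.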

[2] = C610 abs
Experimental: (§1) The geometric mean MIC values from 6 microbial strains in this table were calculated to provide an overall evaluation of antimicrobial activity against gram-negative bacteria.
(§2) Measurement of Antimicrobial Activity—Minimal inhibitory concentrations (MICs) were determined using a standard microtiter dilution method in LB (Luria-Bertani) no-salt medium (10 g of tryptone and 5 g of yeast extract per liter). Briefly, cells were grown overnight at 37° C. in LB and diluted in the same medium. […] Plates were incubated at 37° C. for 24 hours and MICs determined as the lowest peptide concentration that inhibited growth. Alternatively, minimal inhibitory concentrations were determined using a standard microtiter dilution method in a Mueller-Hinton (MH) medium. Briefly, cells were grown overnight at 37° C. in MH broth and diluted in the same medium. […] Plates were incubated at 37° C. for 24 hours and MICs determined as the lowest peptide concentration that inhibited growth. However, for MIC determination of Pseudomonas aeruginosa clinical isolates, brain heart infusion (BH1) medium was used instead of MH broth. In addition, the bacteria were diluted to a final inoculum of 1×10^6 colony-forming units/ml.

[3] = test system: E. coli (UB 1005 wt and DC2 abs)
Experimental: as §1, §2

P. aeruginosa H187 wt = test system: P. aeruginosa H187 wt
Experimental: as §1, §2

S. typhimurium C610 abs = conditions: C610 abs
Experimental: as §1, §2

C. albicans = test system: C. albicans
In short: (§3)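 Microtiter dilution in LB no-salt or Mueller-Hinton medium, with BHI for Pseudomonas aeruginosa clinical isolates (final inoculum 1×10^6 CFU/ml). Plates were incubated 24 hours at 37° C. MIC was the lowest peptide concentration inhibiting growth.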

E. faecalis = test system: E. faecalis
In short: as §3

[4] = test system: Staphylococcus epidermidis
[5] = 25° C., relative to NAL in 50% TFE
[6] = 25° C., benign buffer (100 mM KCl, 50 mM PO4 pH 7.0)
[7] = 25° C., benign buffer diluted 1:1 (v/v) with TFE
[8] = 25° C., benign buffer, relative to NAL in 50% TFE

Compound | % helix 50% TFE [1, 5] | [θ]222 Benign [1, 6] | [θ]222 50% TFE [1, 7] | % helix Benign [1, 8] | other results
CC[C@H](C)[C@H](NC(=O)[C@H](C)NC(=O)[C@H](CCCCN)NC(=O)[C@H](CC(C)C)NC(=O)[C@H](C)NC(=O)[C@@H](NC(=O)[C@H](Cc1c[nH]cn1)NC(=O)[C@H](CC(C)C)NC(=O)[C@@H](NC(=O)[C@@H](NC(=O)[C@H](CCCCN)NC(=O)[C@@H](C)NC(=O)[C@H](C)NC(=O)[C@H](CO)NC(=O)[C@H](CCCCN)NC(=O)[C@H](Cc1ccccc1)NC(=O)[C@@H](NC(=O)[C@H](CCCCN)NC(=O)[C@H](CC(C)C)NC(=O)[C@H](Cc1ccccc1)NC(=O)[C@H](CO)NC(=O)[C@H](CCCCN)NC(=O)[C@H](Cc1c[nH]c2ccccc12)NC(=O)[C@H](CCCCN)NC(C)=O)[C@@H](C)O)[C@@H](C)O)C(C)C)[C@@H](C)O)C(=O)N[C@@H](CO)C(=O)N[C@@H](CO)C(N)=O [NAD] | 85% | −2,850 deg · cm^2 · dmol^−1 | −24,650 deg · cm^2 · dmol^−1 | 10% | [θ]222 Benign ([1]; 5° C., 100 mM KCl, 50 mM PO4 pH 7.4): −4000 deg · cm^2 · dmol^−1; % helix 50% TFE ([1]; 5° C., relative to D-V681 in 50% TFE): 89%; [θ]222 50% TFE ([1]; 5° C., benign buffer pH 7.4 containing 50% TFE): −25000 deg · cm^2 · dmol^−1; % helix Benign ([1]; 5° C., pH 7.4 benign, relative to D-V681 in 50% TFE): 14%; Hemolytic activity Fold (human erythrocytes): 4; Hemolytic activity MHC (human erythrocytes; maximal peptide concentration producing no hemolysis after 18 hours, 37° C.): 31.3 µg/mL; MHC (μg/ml) hRBC (human erythrocytes; Table 11): 31.3 µg/mL; MHC (μg/ml) hRBC (human erythrocytes; Table 12): 31.3 µg/mL; Hemolytic activity MHC (human erythrocytes; red cells of human, 18 h): 31.3 µg/mL; MIC (μg/ml) St C587 wt [2]: 12.5 µg/mL (≈ 4.26 µM); MIC (μg/ml) E. coli C500 abs ([3]; antibiotic sensitive strain): 1.6 µg/mL (≈ 0.545 µM); MIC (μg/ml) E. coli C498 wt ([3]; wild-type lab strain): 3.1 µg/mL (≈ 1.06 µM); MIC (μg/ml) Pa H188 abs (P. aeruginosa H187 wt): 1.6 µg/mL (≈ 0.545 µM); MIC (μg/ml) Pa H187 wt (P. aeruginosa H187 wt; H187 wt): 3.1 µg/mL (≈ 1.06 µM); MIC (μg/ml) St C610 abs (S. typhimurium C610 abs): 3.1 µg/mL (≈ 1.06 µM); MIC (μg/ml) C. albicans (C. albicans): 12.5 µg/mL (≈ 4.26 µM); MIC (μg/ml) E. faecalis C625 wt (E. faecalis): 12.5 µg/mL (≈ 4.26 µM); MIC (μg/ml) S. epidermidis C621 wt [4]: 1.6 µg/mL (≈ 0.545 µM); MIC (μg/ml) C. xerosis C875 wt (Corynebacterium xerosis): 1.6 µg/mL (≈ 0.545 µM)
CC[C@H](C)[C@H](NC(=O)[C@H](C)NC(=O)[C@H](CCCCN)NC(=O)[C@H](CC(C)C)NC(=O)[C@H](C)NC(=O)[C@@H](NC(=O)[C@H](Cc1c[nH]cn1)NC(=O)[C@H](CC(C)C)NC(=O)[C@@H](NC(=O)[C@@H](NC(=O)[C@H](CCCCN)NC(=O)[C@@H](NC(=O)[C@H](C)NC(=O)[C@@H](C)NC(=O)[C@H](CCCCN)NC(=O)[C@H](Cc1ccccc1)NC(=O)[C@@H](NC(=O)[C@H](CCCCN)NC(=O)[C@H](CC(C)C)NC(=O)[C@H](Cc1ccccc1)NC(=O)[C@H](CO)NC(=O)[C@H](CCCCN)NC(=O)[C@H](Cc1c[nH]c2ccccc12)NC(=O)[C@H](CCCCN)NC(C)=O)[C@@H](C)O)C(C)C)[C@@H](C)O)C(C)C)[C@@H](C)O)C(=O)N[C@@H](CO)C(=O)N[C@@H](CO)C(N)=O [PAD] (Ac-KWKSFLKTFK[dA]AVKTVLHTALKAISS-NH2) | 94% | −3,050 deg · cm^2 · dmol^−1 | −27,300 deg · cm^2 · dmol^−1 | 11% | 
CC[C@H](C)[C@H](NC(=O)[C@H](C)NC(=O)[C@H](CCCCN)NC(=O)[C@H](CC(C)C)NC(=O)[C@H](C)NC(=O)[C@@H](NC(=O)[C@H](Cc1c[nH]cn1)NC(=O)[C@H](CC(C)C)NC(=O)[C@@H](NC(=O)[C@@H](NC(=O)[C@H](CCCCN)NC(=O)[C@@H](NC(=O)[C@H](C)NC(=O)[C@@H](CCCCN)NC(=O)[C@H](CCCCN)NC(=O)[C@H](Cc1ccccc1)NC(=O)[C@@H](NC(=O)[C@H](CCCCN)NC(=O)[C@H](CC(C)C)NC(=O)[C@H](Cc1ccccc1)NC(=O)[C@H](CO)NC(=O)[C@H](CCCCN)NC(=O)[C@H](Cc1c[nH]c2ccccc12)NC(=O)[C@H](CCCCN)NC(C)=O)[C@@H](C)O)C(C)C)[C@@H](C)O)C(C)C)[C@@H](C)O)C(=O)N[C@@H](CO)C(=O)N[C@@H](CO)C(N)=O [PKD] (Ac-KWKSFLKTFK[dK]AVKTVLHTALKAISS-NH2) | 96% | −2,500 deg · cm^2 · dmol^−1 | −27,800 deg · cm^2 · dmol^−1 | 9% | 
CC[C@H](C)[C@H](NC(=O)[C@H](C)NC(=O)[C@H](CCCCN)NC(=O)[C@H](CC(C)C)NC(=O)[C@H](C)NC(=O)[C@@H](NC(=O)[C@H](Cc1c[nH]cn1)NC(=O)[C@H](CC(C)C)NC(=O)[C@@H](NC(=O)[C@@H](NC(=O)[C@H](CCCCN)NC(=O)[C@@H](NC(=O)[C@H](C)NC(=O)[C@@H](CC(C)C)NC(=O)[C@H](CCCCN)NC(=O)[C@H](Cc1ccccc1)NC(=O)[C@@H](NC(=O)[C@H](CCCCN)NC(=O)[C@H](CC(C)C)NC(=O)[C@H](Cc1ccccc1)NC(=O)[C@H](CO)NC(=O)[C@H](CCCCN)NC(=O)[C@H](Cc1c[nH]c2ccccc12)NC(=O)[C@H](CCCCN)NC(C)=O)[C@@H](C)O)C(C)C)[C@@H](C)O)C(C)C)[C@@H](C)O)C(=O)N[C@@H](CO)C(=O)N[C@@H](CO)C(N)=O [PLD] (Ac-KWKSFLKTFK[dL]AVKTVLHTALKAISS-NH2) | 90% | −2,950 deg · cm^2 · dmol^−1 | −26,100 deg · cm^2 · dmol^−1 | 10% | 
CC[C@H](C)[C@H](NC(=O)[C@H](C)NC(=O)[C@H](CCCCN)NC(=O)[C@H](CC(C)C)NC(=O)[C@H](C)NC(=O)[C@@H](NC(=O)[C@H](Cc1c[nH]cn1)NC(=O)[C@H](CC(C)C)NC(=O)[C@@H](NC(=O)[C@@H](NC(=O)[C@H](CCCCN)NC(=O)[C@@H](NC(=O)[C@H](C)NC(=O)[C@@H](CO)NC(=O)[C@H](CCCCN)NC(=O)[C@H](Cc1ccccc1)NC(=O)[C@@H](NC(=O)[C@H](CCCCN)NC(=O)[C@H](CC(C)C)NC(=O)[C@H](Cc1ccccc1)NC(=O)[C@H](CO)NC(=O)[C@H](CCCCN)NC(=O)[C@H](Cc1c[nH]c2ccccc12)NC(=O)[C@H](CCCCN)NC(C)=O)[C@@H](C)O)C(C)C)[C@@H](C)O)C(C)C)[C@@H](C)O)C(=O)N[C@@H](CO)C(=O)N[C@@H](CO)C(N)=O [PSD] | 90% | −2,800 deg · cm^2 · dmol^−1 | −26,000 deg · cm^2 · dmol^−1 | 10% | 
CC[C@H](C)[C@H](NC(=O)[C@H](C)NC(=O)[C@H](CCCCN)NC(=O)[C@H](CC(C)C)NC(=O)[C@H](C)NC(=O)[C@@H](NC(=O)[C@H](Cc1c[nH]cn1)NC(=O)[C@H](CC(C)C)NC(=O)[C@@H](NC(=O)[C@@H](NC(=O)[C@H](CCCCN)NC(=O)[C@@H](NC(=O)[C@H](C)NC(=O)[C@H](NC(=O)[C@H](CCCCN)NC(=O)[C@H](Cc1ccccc1)NC(=O)[C@@H](NC(=O)[C@H](CCCCN)NC(=O)[C@H](CC(C)C)NC(=O)[C@H](Cc1ccccc1)NC(=O)[C@H](CO)NC(=O)[C@H](CCCCN)NC(=O)[C@H](Cc1c[nH]c2ccccc12)NC(=O)[C@H](CCCCN)NC(C)=O)[C@@H](C)O)C(C)C)C(C)C)[C@@H](C)O)C(C)C)[C@@H](C)O)C(=O)N[C@@H](CO)C(=O)N[C@@H](CO)C(N)=O [PVD] (Ac-KWKSFLKTFK[dV]AVKTVLHTALKAISS-NH2) | 72% | −2,400 deg · cm^2 · dmol^−1 | −20,800 deg · cm^2 · dmol^−1 | 8% | 
Ac-KWKSFLKTFKSAGKTVLHTALKAISS-NH2 [NG] | 84% |  | −24,350 deg · cm^2 · dmol^−1 | 8% | 
Ac-KWKSFLKTFKSALKTVLHTALKAISS-NH2 [NLL] | 98% | −20,600 deg · cm^2 · dmol^−1 | −28,250 deg · cm^2 · dmol^−1 | 71% | 
Ac-KWKSFLKTFKSASKTVLHTALKAISS-NH2 [NSL] | 95% | −1,300 deg · cm^2 · dmol^−1 | −27,550 deg · cm^2 · dmol^−1 | 4% | 
